What was measured:
[1] = tested on: bovine Babesia and equine Babesia and Theileria parasites; experiment: Babesia and Theileria fluorescence-based assay, all four species; type: cell-based, B. bovis, B. bigemina, T. equi, B. caballi
[2] = tested on: P. falciparum; experiment: EC50 listed in S2 Table Metabolomics (used to set the concentration tested); type: cell-based; conditions: Plasmodium falciparum, read-out: EC50_nM
[3] = tested on: P. falciparum 3D7 trophozoites; experiment: Metabolomic fingerprint profiling LC-MS; type: cell-based, Plasmodium falciparum
[4] = metabolite level change after treatment

With C[n+]1c2ccccc2nc2ccc(NCCO)cc21 [MMV396693] the “anti-Babesia and anti-Theileria hits, IC50 in words” value [1] was “nanomolar IC50s”, the “mean selectivity indices (SI)” value [1] was “greater than 230” and the IC50 ([1]; Babesia, read-out: IC50s for both bovine Babesia and equine Babesia and Theileria parasites) was 43 to 750 nM. It also gave an EC50 [2] of 296 nM, an Acetyllysine ([3]; S2 Table Metabolomics, metabolite Acetyllysine) of -0.1505 and a N-acetyl-L-ornithine ([3]; S2 Table Metabolomics, metabolite N-acetyl-L-ornithine) of -0.01449. It also gave a N-carbamoyl-L-aspartate ([3]; S2 Table Metabolomics, metabolite N-carbamoyl-L-aspartate) of 0.2036, an NADPH ([3]; S2 Table Metabolomics, metabolite NADPH) of 1.101 and a dAMP ([3]; S2 Table Metabolomics, metabolite dAMP) of 0.3768. The dCMP ([3]; S2 Table Metabolomics, metabolite dCMP) was -0.245, the dTDP ([3]; S2 Table Metabolomics, metabolite dTDP) was -0.2826 and the dTMP ([3]; S2 Table Metabolomics, metabolite dTMP) was -0.3704. It also gave a dTTP ([3]; S2 Table Metabolomics, metabolite dTTP) of 0.008069, a dihydroorotate ([3]; S2 Table Metabolomics, metabolite dihydroorotate) of 0.3914 and an orotate ([3]; S2 Table Metabolomics, metabolite orotate) of -0.3502. It also gave a DLH ([3]; S2 Table Metabolomics, peptide DLH) of 0.01259, a DLS/SDL/SID ([3]; S2 Table Metabolomics, peptide DLS/SDL/SID) of 0.07661 and a PD ([3]; S2 Table Metabolomics, peptide PD) of 0.009709. It also gave a PEE ([3]; S2 Table Metabolomics, peptide PEE) of -0.05476, a PVNF ([3]; S2 Table Metabolomics, peptide PVNF) of 0.1478 and a 3-phosphoglycerate ([3]; metabolite 3-phosphoglycerate, S2 Table Metabolomics) of 0.5809. It also gave an ADP-D-glucose ([3]; metabolite ADP-D-glucose, S2 Table Metabolomics) of 0.23, an ATP ([3]; metabolite ATP, S2 Table Metabolomics) of 0.04335 and a CDP ([3]; metabolite CDP, S2 Table Metabolomics, change in metabolite level after compound treatment) of -0.06362. The D-sedoheptulose-1/7-phosphate ([3]; metabolite D-sedoheptulose-1/7-phosphate, S2 Table Metabolomics, change in metabolite level after compound treatment) was -0.05616, the FAD ([3]; metabolite FAD, S2 Table Metabolomics) was 0.2669 and the GMP ([3]; metabolite GMP, S2 Table Metabolomics, change in metabolite level after compound treatment) was 0.08605. The “NAD+” value ([3]; metabolite NAD+, S2 Table Metabolomics) was 0.2129, the “NADP+” value ([3]; metabolite NADP+, S2 Table Metabolomics) was 0.2138 and the “Octoluse Bisphosphate” value ([3]; metabolite Octoluse Bisphosphate, S2 Table Metabolomics, change in metabolite level after compound treatment) was 0.3676. For the same molecule, the Pyroglutamic acid ([3]; metabolite Pyroglutamic acid, S2 Table Metabolomics) was 0.1161, the UDP-D-glucose ([3]; metabolite UDP-D-glucose, S2 Table Metabolomics) was 0.1757 and the UDP-D-glucuronate ([3]; metabolite UDP-D-glucuronate, S2 Table Metabolomics) was 0.2718. The UDP-N-acetyl-glucosamine ([3]; metabolite UDP-N-acetyl-glucosamine, S2 Table Metabolomics) was 0.1832, the UDP ([3]; metabolite UDP, S2 Table Metabolomics, change in metabolite level after compound treatment) was -0.3369 and the UMP ([3]; metabolite UMP, S2 Table Metabolomics, change in metabolite level after compound treatment) was -0.448. For the same molecule, the UTP ([3]; metabolite UTP, S2 Table Metabolomics, change in metabolite level after compound treatment) was 0.03764, the a-ketoglutarate ([3]; metabolite a-ketoglutarate, S2 Table Metabolomics) was -0.1814 and the citrate/isocitrate ([3]; metabolite citrate/isocitrate, S2 Table Metabolomics, change in metabolite level after compound treatment) was 1.401. The cytidine ([3]; metabolite cytidine, S2 Table Metabolomics) was 0.9119, the dATP ([3]; metabolite dATP, S2 Table Metabolomics) was 0.0739 and the dGMP/AMP ([3]; metabolite dGMP/AMP, S2 Table Metabolomics, change in metabolite level after compound treatment) was 0.007618. The fumarate ([3]; metabolite fumarate, S2 Table Metabolomics, change in metabolite level after compound treatment) was 0.1883, the glucose-1/6-phosphate ([3]; metabolite glucose-1/6-phosphate, S2 Table Metabolomics, change in metabolite level after compound treatment) was -0.01569 and the glycerate ([3]; metabolite glycerate, S2 Table Metabolomics, change in metabolite level after compound treatment) was 0.2787. It also gave a guanine ([3]; metabolite guanine, S2 Table Metabolomics, change in metabolite level after compound treatment) of 0.244, a guanosine ([3]; metabolite guanosine, S2 Table Metabolomics, change in metabolite level after compound treatment) of 0.1378 and a hypoxanthine ([3]; metabolite hypoxanthine, S2 Table Metabolomics) of 0.1496. The indole ([3]; metabolite indole, S2 Table Metabolomics) was 0.3367, the inosine ([3]; metabolite inosine, S2 Table Metabolomics, change in metabolite level after compound treatment) was 0.5603 and the 2_3-Diphosphoglyceric acid [3, 4] was 0.305. For the same molecule, the 4-phosphopantothenate [3, 4] was 0.02035, the 6-phospho-D-gluconate [3, 4] was 0.201 and the FMN [3, 4] was 0.1776. The IMP [3, 4] was 0.1162, the Pyrophosphate [3, 4] was 0.4038 and the Sedoheptoluse bisphosphate [3, 4] was 0.06738. It also gave a cyclic-AMP [3, 4] of 0.09405, a glutathione disulfide [3, 4] of 0.1827 and a lactate [3, 4] of 0.3349. It also gave a myo-inositol [3, 4] of -0.009161, a nicotinate ([3]; metabolite nicotinate, S2 Table Metabolomics) of 0.1527 and an ornithine ([3]; metabolite ornithine, S2 Table Metabolomics) of 0.2843. It also gave a phosphoenolpyruvate ([3]; metabolite phosphoenolpyruvate, S2 Table Metabolomics) of 0.01034, a pyruvate ([3]; metabolite pyruvate, S2 Table Metabolomics, change in metabolite level after compound treatment) of -0.1004 and a ribose-phosphate ([3]; metabolite ribose-phosphate, S2 Table Metabolomics) of 0.7027. It also gave a sarcosine/alanine ([3]; metabolite sarcosine/alanine, S2 Table Metabolomics, change in metabolite level after compound treatment) of 0.6024, a sn-glycerol-3-phosphate ([3]; metabolite sn-glycerol-3-phosphate, S2 Table Metabolomics) of 0.3061 and a succinate/methylmalonic acid ([3]; metabolite succinate/methylmalonic acid, S2 Table Metabolomics, change in metabolite level after compound treatment) of 0.6812. For the same molecule, the uridine ([3]; metabolite uridine, S2 Table Metabolomics, change in metabolite level after compound treatment) was 0.1028 and the xanthosine ([3]; metabolite xanthosine, S2 Table Metabolomics, change in metabolite level after compound treatment) was 0.2966.

— publication PMC4965013, “Open Source Drug Discovery with the Malaria Box Compound Collection for Neglected Diseases and Beyond” (PLoS Pathogens, 2016)
